Patent US8802597B2, “Herbicidal pyrimidines” (E I du Pont de Nemours and Company, priority 2003, dated 2014)

How the values were obtained:
Format in all cases: in vivo
[1] = system: wheat (Triticum aestivum); experiment: Test C postemergence
Procedure, shortened: (§1)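 Visual injury ratings, 0 (no effect) to 100 (complete control), made 12 to 14 days after treatment by comparison with untreated controls. Greenhouse plants received test chemical in a surfactant-containing non-phytotoxic solvent, either preemergence on planted seeds or postemergence at the 1- to 4-leaf stage.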

[2] = system: blackgrass (Alopecurus myosuroides); experiment: Test C postemergence
Procedure, shortened: as §1

wild oat (Avena fatua) = experiment: Test C postemergence
Procedure, shortened: as §1

[3] = system: canarygrass (Phalaris minor); experiment: Test C postemergence
Procedure, shortened: as §1

[4] = system: winter barley (Hordeum vulgare); experiment: Test C postemergence
Procedure, shortened: as §1

[5] = system: green foxtail (Setaria viridis); experiment: Test C postemergence
Procedure, shortened: as §1

[6] = system: windgrass (Apera spica-venti); experiment: Test C postemergence
Procedure, shortened: as §1

[7] = system: downy brome (Bromus tectorum); experiment: Test C postemergence
Procedure, shortened: as §1

[8] = system: Italian ryegrass (Lolium multiflorum); experiment: Test C postemergence
Procedure, shortened: as §1

[9] = system: rice flatsedge (Cyperus iria); experiment: Test E flooded paddy water application; settings: Flood, 21 days, scale 0 to 100 (0 no effect, 100 complete control)
Procedure, shortened: (§2)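 Weeds sown in sterilized Tama silt loam (2.6% organic matter), greenhouse 29.5/26.7° C, 16-h photoperiod; at 2.0–2.5-leaf stage pots flooded to 3 cm and compound added to paddy water. Visual rating vs untreated controls after 21 days, 0 (no effect) to 100 (complete control).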

[10] = system: purple redstem (Ammannia coccinea); experiment: Test E flooded paddy water application; settings: Flood, 21 days, scale 0 to 100 (0 no effect, 100 complete control)
Procedure, shortened: as §2

[11] = 125 g ai/ha, scale 0 to 100 (0 no effect, 100 complete control)

Compound: CCOC(=O)c1nc(-c2ccc(Cl)cc2)nc(N)c1Cl [Compound 64, ethyl 6-amino-5-chloro-2-(4-chlorophenyl)-4-pyrimidinecarboxylate]
- Plant response rating (scale of 0 to 100), Wheat ([1]; 31 g ai/ha): 0
- Plant response rating, Wheat ([1]; 250 g ai/ha, scale 0 to 100): 10
- plant injury at 62 g/ha ([1]; Triticum aestivum, post-emergence, 62 g ai/ha, scale 0 to 100 (0 no effect, 100 complete control), read-out: Wheat plant response rating): 0%
- plant injury at 125 g/ha ([1]; Triticum aestivum, post-emergence, 125 g ai/ha, scale 0 to 100 (0 no effect, 100 complete control), read-out: Wheat plant response rating): 10%
- Plant response rating (scale of 0 to 100), Blackgrass ([2]; 31 g ai/ha): 40
- Plant response rating, Blackgrass ([2]; 250 g ai/ha, scale 0 to 100): 50
- pest or weed control at 62 g/ha ([2]; Alopecurus myosuroides, post-emergence, 62 g ai/ha, scale 0 to 100 (0 no effect, 100 complete control), read-out: Blackgrass plant response rating): 45%
- pest or weed control at 125 g/ha ([2]; Alopecurus myosuroides, post-emergence, 125 g ai/ha, scale 0 to 100 (0 no effect, 100 complete control), read-out: Blackgrass plant response rating): 50%
- Plant response rating (scale of 0 to 100), Oat, Wild (wild oat (Avena fatua); 31 g ai/ha): 5
- Plant response rating, Oat, Wild (wild oat (Avena fatua); 250 g ai/ha, scale 0 to 100): 10
- pest or weed control at 62 g/ha (wild oat (Avena fatua); Avena fatua, post-emergence, 62 g ai/ha, scale 0 to 100 (0 no effect, 100 complete control), read-out: Oat, Wild plant response rating): 5%
- pest or weed control at 125 g/ha (wild oat (Avena fatua); Avena fatua, post-emergence, 125 g ai/ha, scale 0 to 100 (0 no effect, 100 complete control), read-out: Oat, Wild plant response rating): 10%
- Plant response rating (scale of 0 to 100), Canarygrass ([3]; 31 g ai/ha): 5
- Plant response rating, Canarygrass ([3]; 250 g ai/ha, scale 0 to 100): 10
- pest or weed control at 62 g/ha ([3]; Phalaris minor, post-emergence, 62 g ai/ha, scale 0 to 100 (0 no effect, 100 complete control), read-out: Canarygrass plant response rating): 5%
- pest or weed control at 125 g/ha ([3]; Phalaris minor, post-emergence, 125 g ai/ha, scale 0 to 100 (0 no effect, 100 complete control), read-out: Canarygrass plant response rating): 10%
- Plant response rating (scale of 0 to 100), Barley ([4]; 31 g ai/ha): 20
- Plant response rating, Barley ([4]; 250 g ai/ha, scale 0 to 100): 100
- plant injury at 62 g/ha ([4]; Hordeum vulgare, post-emergence, 62 g ai/ha, scale 0 to 100 (0 no effect, 100 complete control), read-out: Barley plant response rating): 20%
- Plant response rating (scale of 0 to 100), Foxtail, Green ([5]; 31 g ai/ha): 0
- Plant response rating, Foxtail, Green ([5]; 250 g ai/ha, scale 0 to 100): 45
- pest or weed control at 62 g/ha ([5]; Setaria viridis, post-emergence, 62 g ai/ha, scale 0 to 100 (0 no effect, 100 complete control), read-out: Foxtail, Green plant response rating): 30%
- pest or weed control at 125 g/ha ([5]; Setaria viridis, post-emergence, 125 g ai/ha, scale 0 to 100 (0 no effect, 100 complete control), read-out: Foxtail, Green plant response rating): 40%
- Plant response rating (scale of 0 to 100), Windgrass ([6]; 31 g ai/ha): 40
- Plant response rating, Windgrass ([6]; 250 g ai/ha, scale 0 to 100): 60
- pest or weed control at 62 g/ha ([6]; Apera spica-venti, post-emergence, 62 g ai/ha, scale 0 to 100 (0 no effect, 100 complete control), read-out: Windgrass plant response rating): 55%
- pest or weed control at 125 g/ha ([6]; Apera spica-venti, post-emergence, 125 g ai/ha, scale 0 to 100 (0 no effect, 100 complete control), read-out: Windgrass plant response rating): 55%
- Plant response rating (scale of 0 to 100), Bromegrass, Downy ([7]; 31 g ai/ha): 10
- Plant response rating, Bromegrass, Downy ([7]; 250 g ai/ha, scale 0 to 100): 20
- pest or weed control at 62 g/ha ([7]; Bromus tectorum, post-emergence, 62 g ai/ha, scale 0 to 100 (0 no effect, 100 complete control), read-out: Bromegrass, Downy plant response rating): 15%
- pest or weed control at 125 g/ha ([7]; Bromus tectorum, post-emergence, 125 g ai/ha, scale 0 to 100 (0 no effect, 100 complete control), read-out: Bromegrass, Downy plant response rating): 20%
- Plant response rating (scale of 0 to 100), Ryegrass, Italian ([8]; 31 g ai/ha): 5
- Plant response rating, Ryegrass, Italian ([8]; 250 g ai/ha, scale 0 to 100): 45
- pest or weed control at 62 g/ha ([8]; Lolium multiflorum, post-emergence, 62 g ai/ha, scale 0 to 100 (0 no effect, 100 complete control), read-out: Ryegrass, Italian plant response rating): 30%
- pest or weed control at 125 g/ha ([8]; Lolium multiflorum, post-emergence, 125 g ai/ha, scale 0 to 100 (0 no effect, 100 complete control), read-out: Ryegrass, Italian plant response rating): 35%
- Flatsedge, Rice plant response rating ([9]; 32 g ai/ha): 85
- Flatsedge, Rice plant response rating ([9]; 64 g ai/ha): 90
- Flatsedge, Rice plant response rating ([9]; 125 g ai/ha): 100
- Flatsedge, Rice plant response rating ([9]; 250 g ai/ha): 100
- Plant response rating, Flatsedge, Rice ([9]; 16 g ai/ha): 75
- Redstem plant response rating ([10]; 32 g ai/ha): 60
- Redstem plant response rating ([10]; 64 g ai/ha): 60
- Redstem plant response rating ([10]; 125 g ai/ha): 60
- Redstem plant response rating ([10]; 250 g ai/ha): 80
- Plant response rating, Redstem ([10]; 16 g ai/ha): 20

Compound: COC(=O)c1nc(-c2ccc(Br)cc2)nc(N)c1Br [Compound 129]
- Plant response rating (scale of 0 to 100), Wheat ([1]; 16 g ai/ha): 0
- Plant response rating (scale of 0 to 100), Wheat ([1]; 31 g ai/ha): 35
- Plant response rating (scale of 0 to 100), Wheat ([1]; 62 g ai/ha): 35
- Wheat plant response rating [1, 11]: 35
- Plant response rating (scale of 0 to 100), Blackgrass ([2]; 16 g ai/ha): 35
- Plant response rating (scale of 0 to 100), Blackgrass ([2]; 31 g ai/ha): 45
- Plant response rating (scale of 0 to 100), Blackgrass ([2]; 62 g ai/ha): 50
- Blackgrass plant response rating [2, 11]: 50
- Plant response rating (scale of 0 to 100), Oat, Wild (wild oat (Avena fatua); 16 g ai/ha): 30
- Plant response rating (scale of 0 to 100), Oat, Wild (wild oat (Avena fatua); 31 g ai/ha): 35
- Plant response rating (scale of 0 to 100), Oat, Wild (wild oat (Avena fatua); 62 g ai/ha): 40
- Oat, Wild plant response rating (wild oat (Avena fatua); [11]): 40
- Plant response rating (scale of 0 to 100), Canarygrass ([3]; 16 g ai/ha): 0
- Plant response rating (scale of 0 to 100), Canarygrass ([3]; 31 g ai/ha): 30
- Plant response rating (scale of 0 to 100), Canarygrass ([3]; 62 g ai/ha): 30
- Canarygrass plant response rating [3, 11]: 30
- Plant response rating (scale of 0 to 100), Barley ([4]; 16 g ai/ha): 35
- Plant response rating (scale of 0 to 100), Barley ([4]; 31 g ai/ha): 40
- Barley plant response rating ([4]; 62 g ai/ha, scale 0 to 100 (0 no effect, 100 complete control)): 45
- Barley plant response rating [4, 11]: 45
- Plant response rating (scale of 0 to 100), Foxtail, Green ([5]; 16 g ai/ha): 40
- Plant response rating (scale of 0 to 100), Foxtail, Green ([5]; 31 g ai/ha): 40
- Plant response rating (scale of 0 to 100), Foxtail, Green ([5]; 62 g ai/ha): 40
- Foxtail, Green plant response rating [5, 11]: 60
- Plant response rating (scale of 0 to 100), Windgrass ([6]; 16 g ai/ha): 40
- Plant response rating (scale of 0 to 100), Windgrass ([6]; 31 g ai/ha): 45
- Plant response rating (scale of 0 to 100), Windgrass ([6]; 62 g ai/ha): 60
- Windgrass plant response rating [6, 11]: 60
- Plant response rating (scale of 0 to 100), Bromegrass, Downy ([7]; 16 g ai/ha): 0
- Plant response rating (scale of 0 to 100), Bromegrass, Downy ([7]; 31 g ai/ha): 0
- Plant response rating (scale of 0 to 100), Bromegrass, Downy ([7]; 62 g ai/ha): 0
- Bromegrass, Downy plant response rating [7, 11]: 0
- Plant response rating (scale of 0 to 100), Ryegrass, Italian ([8]; 16 g ai/ha): 45
- Plant response rating (scale of 0 to 100), Ryegrass, Italian ([8]; 31 g ai/ha): 55
- Plant response rating (scale of 0 to 100), Ryegrass, Italian ([8]; 62 g ai/ha): 55
- Ryegrass, Italian plant response rating [8, 11]: 60
- Flatsedge, Rice plant response rating ([9]; 64 g ai/ha): 100
- Flatsedge, Rice plant response rating ([9]; 125 g ai/ha): 100
- Flatsedge, Rice plant response rating ([9]; 250 g ai/ha): 100
- Plant response rating, Flatsedge, Rice ([9]; 16 g ai/ha): 100
- Plant response rating, Flatsedge, Rice ([9]; 32 g ai/ha): 100
- Redstem plant response rating ([10]; 64 g ai/ha): 75
- Redstem plant response rating ([10]; 125 g ai/ha): 80
- Redstem plant response rating ([10]; 250 g ai/ha): 95
- Plant response rating, Redstem ([10]; 16 g ai/ha): 30
- Plant response rating, Redstem ([10]; 32 g ai/ha): 60
